Experimental data reported in PubChem BioAssay AID248 (DTP/NCI, 2004).
Inconclusive results and toxic doses are left out. Rule as the data show it: active = T/C of 150% or more; inactive = T/C below 125%.

System: L1210 leukemia ip in BDF1 mice, survival T/C
Experiment: NCI In Vivo Anticancer Drug Screen. Data for tumor model L1210 Leukemia (intraperitoneal) in B6D2F1 (BDF1) mice
Conditions: endpoint: mean survival time, higher = longer survival
In short: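 Transplanted-tumor mice were given test agent; controls received vehicle only. Survival readings from the two groups were divided (treated over control).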

[1] = dose: 100.0 mg/kg/injection, schedule: Q04DX003 (ip), vehicle: Klucel (hydroxypropylcellulose) (HPC)
[2] = dose: 200.0 mg/kg/injection, schedule: Q04DX003 (ip), vehicle: Klucel (hydroxypropylcellulose) (HPC)
[3] = dose: 400.0 mg/kg/injection, schedule: Q04DX003 (ip), vehicle: Klucel (hydroxypropylcellulose) (HPC)
[4] = dose: 100.0 mg/kg/injection, schedule: Q04DX002 (ip), vehicle: saline with Tween-80
[5] = dose: 200.0 mg/kg/injection, schedule: Q04DX002 (ip), vehicle: saline with Tween-80
[6] = dose: 400.0 mg/kg/injection, schedule: Q04DX002 (ip), vehicle: saline with Tween-80
[7] = dose: 100.0 mg/kg/injection, schedule: Q04DX002 (ip), vehicle: saline
[8] = dose: 200.0 mg/kg/injection, schedule: Q04DX002 (ip), vehicle: saline
[9] = dose: 100.0 mg/kg/injection, schedule: Q04DX002 (ip), vehicle: Klucel (hydroxypropylcellulose) (HPC)
[10] = dose: 200.0 mg/kg/injection, schedule: Q04DX002 (ip), vehicle: Klucel (hydroxypropylcellulose) (HPC)
[11] = dose: 400.0 mg/kg/injection, schedule: Q04DX002 (ip), vehicle: Klucel (hydroxypropylcellulose) (HPC)
[12] = dose: 100.0 mg/kg/injection, schedule: Q01DX001 (ip), vehicle: saline
[13] = dose: 200.0 mg/kg/injection, schedule: Q01DX001 (ip), vehicle: saline
[14] = dose: 400.0 mg/kg/injection, schedule: Q01DX001 (ip), vehicle: saline
[15] = dose: 100.0 mg/kg/injection, schedule: Q01DX009 (ip), vehicle: saline with Tween-80
[16] = dose: 200.0 mg/kg/injection, schedule: Q01DX009 (ip), vehicle: saline with Tween-80
[17] = dose: 400.0 mg/kg/injection, schedule: Q01DX009 (ip), vehicle: saline with Tween-80
[18] = dose: 100.0 mg/kg/injection, schedule: Q01DX001 (ip), vehicle: Klucel (hydroxypropylcellulose) (HPC)
[19] = dose: 200.0 mg/kg/injection, schedule: Q01DX001 (ip), vehicle: Klucel (hydroxypropylcellulose) (HPC)
[20] = dose: 400.0 mg/kg/injection, schedule: Q01DX001 (ip), vehicle: Klucel (hydroxypropylcellulose) (HPC)
[21] = dose: 100.0 mg/kg/injection, schedule: Q01DX009 (ip), vehicle: Klucel (hydroxypropylcellulose) (HPC)
[22] = dose: 200.0 mg/kg/injection, schedule: Q01DX009 (ip), vehicle: Klucel (hydroxypropylcellulose) (HPC)

Measured: T/C

O=C(N/C=C/NC(=O)Nc1ccc([N+](=O)[O-])cc1)Nc1ccc([N+](=O)[O-])cc1
inactive: [1] 100 % of control | [2] 89 % of control | [3] 92 % of control

CCOc1ccc(OC/C=C(\C)CC/C=C(/C)CC)cc1
inactive: [4] 96 % of control | [5] 99 % of control | [6] 108 % of control

CSc1nc(N(C)C)c2ncn(C3OC(C[N+](=O)[O-])C(OC(C)=O)C(OC(C)=O)C3OC(C)=O)c2n1 (stereo not given)
inactive: dose: 50.0 mg/kg/injection, schedule: Q04DX002 (ip), vehicle: saline 89 % of control | [7] 112 % of control | [8] 94 % of control

C/C(=C\c1ccccc1)C(=O)C1C(c2ccccc2)CC(=O)C(C)C1c1ccccc1 (stereo not given)
inactive: dose: 50.0 mg/kg/injection, schedule: Q04DX002 (ip), vehicle: saline + alcohol 98 % of control | dose: 100.0 mg/kg/injection, schedule: Q04DX002 (ip), vehicle: saline + alcohol 91 % of control | dose: 200.0 mg/kg/injection, schedule: Q04DX002 (ip), vehicle: saline + alcohol 91 % of control

CCO/C(C)=N/OC(=O)c1ccccc1
inactive: [9] 94 % of control | [10] 110 % of control | [11] 94 % of control

CC(C)C(C=NCC(CCN(C)C)(c1ccc2ccccc2c1)C(C)C)(CCN(C)C)c1ccc2ccccc2c1 (stereo not given)
inactive: dose: 6.25 mg/kg/injection, schedule: Q04DX002 (ip), vehicle: saline + alcohol 87 % of control | dose: 12.5 mg/kg/injection, schedule: Q04DX002 (ip), vehicle: saline + alcohol 93 % of control | dose: 25.0 mg/kg/injection, schedule: Q04DX002 (ip), vehicle: saline + alcohol 93 % of control

O=C1NC(=O)C(c2ccccc2)(C2CC2)N1 (stereo not given)
inactive: dose: 50.0 mg/kg/injection, schedule: Q04DX003 (ip), vehicle: Klucel (hydroxypropylcellulose) (HPC) 107 % of control | [12] 93 % of control | [1] 95 % of control | [13] 93 % of control | [2] 101 % of control | [14] 98 % of control

COc1ccc(C(=Cc2ccccc2Br)c2ccc(OC)cc2)cc1
inactive: [15] 102 % of control | dose: 100.0 mg/kg/injection, schedule: Q04DX003 (ip), vehicle: saline with Tween-80 106 % of control | [16] 98 % of control | dose: 200.0 mg/kg/injection, schedule: Q04DX003 (ip), vehicle: saline with Tween-80 98 % of control | [17] 93 % of control | dose: 400.0 mg/kg/injection, schedule: Q04DX003 (ip), vehicle: saline with Tween-80 92 % of control

Cc1cc(=O)[nH]c2nc3ccccc3n12
inactive: [18] 108 % of control | [1] 96 % of control | [19] 95 % of control | [2] 96 % of control | [20] 111 % of control | [3] 104 % of control

NC1CCS(=O)(=O)C1 (stereo not given)
inactive: [12] 95 % of control | [13] 98 % of control | [14] 101 % of control

O=CNNC(=O)c1ccccn1
inactive: dose: 50.0 mg/kg/injection, schedule: Q01DX001 (ip), vehicle: water 108 % of control | dose: 50.0 mg/kg/injection, schedule: Q01DX009 (ip), vehicle: saline 98 % of control | dose: 50.0 mg/kg/injection, schedule: Q04DX003 (ip), vehicle: saline 100 % of control | dose: 100.0 mg/kg/injection, schedule: Q01DX001 (ip), vehicle: water 108 % of control | dose: 100.0 mg/kg/injection, schedule: Q01DX009 (ip), vehicle: saline 101 % of control | dose: 100.0 mg/kg/injection, schedule: Q04DX003 (ip), vehicle: saline 96 % of control | dose: 200.0 mg/kg/injection, schedule: Q01DX009 (ip), vehicle: saline 114 % of control | dose: 200.0 mg/kg/injection, schedule: Q04DX003 (ip), vehicle: saline 109 % of control

COc1ccccc1/C=C(\S)C(=O)O
inactive: [12] 103 % of control | [13] 97 % of control | [14] 97 % of control

CCn1c(N)cc(=O)[nH]c1=S
inactive: dose: 50.0 mg/kg/injection, schedule: Q01DX001 (ip), vehicle: saline 96 % of control | [12] 108 % of control | [13] 102 % of control | [14] 106 % of control

N#CC(C#N)=Cc1ccccc1[N+](=O)[O-]
inactive: dose: 25.0 mg/kg/injection, schedule: Q01DX Z (ip), vehicle: methylcellulose (MC) 98 % of control | dose: 50.0 mg/kg/injection, schedule: Q01DX Z (ip), vehicle: methylcellulose (MC) 88 % of control

O=C(O)CC1CC2CCC1C2 (stereo not given)
inactive: [4] 87 % of control | [5] 97 % of control | [6] 87 % of control

OCCCNc1nc2ccc(Cl)cc2c2ccccc12
inactive: [1] 116 % of control | [2] 107 % of control | [3] 108 % of control

O=C1O[B-](c2ccccc2)(c2ccccc2)[NH2+]C1Cc1ccc(O)cc1 (stereo not given)
inactive: dose: 75.0 mg/kg/injection, schedule: Q01DX001 (ip), vehicle: acetone 91 % of control | dose: 150.0 mg/kg/injection, schedule: Q01DX001 (ip), vehicle: acetone 96 % of control | dose: 300.0 mg/kg/injection, schedule: Q01DX001 (ip), vehicle: acetone 95 % of control

NC(N)(C(F)(F)F)C(F)(F)F
inactive: [12] 101 % of control | [13] 102 % of control | [14] 98 % of control

CC(=O)c1cccc(NC(=O)Oc2ccc(F)cc2Cl)c1
inactive: [21] 97 % of control | [22] 108 % of control

O=C1OCC/C1=C/OS(=O)(=O)C(F)(F)F
inactive: dose: 12.5 mg/kg/injection, schedule: Q01DX009 (ip), vehicle: water 105 % of control | dose: 25.0 mg/kg/injection, schedule: Q01DX009 (ip), vehicle: water 106 % of control | dose: 50.0 mg/kg/injection, schedule: Q01DX009 (ip), vehicle: water 105 % of control | dose: 100.0 mg/kg/injection, schedule: Q01DX009 (ip), vehicle: water 104 % of control

CC1CC=CCC1/C=N/NC(N)=O (stereo not given)
inactive: [18] 107 % of control | [19] 104 % of control | [20] 98 % of control

O=S(=O)(c1ccccc1)C(Br)c1ccccc1 (stereo not given)
inactive: [9] 101 % of control | [10] 105 % of control | [11] 97 % of control

O=S(=O)(O)Cc1ccccc1O
inactive: [15] 96 % of control | [16] 102 % of control | [17] 93 % of control

CC12CCC3(CC1CCC1OC12)OCCO3 (stereo not given)
inactive: dose: 100.0 mg/kg/injection, schedule: Q01DX001 (ip), vehicle: carboxymethylcellulose (CMC) 103 % of control | dose: 200.0 mg/kg/injection, schedule: Q01DX001 (ip), vehicle: carboxymethylcellulose (CMC) 100 % of control | dose: 400.0 mg/kg/injection, schedule: Q01DX001 (ip), vehicle: carboxymethylcellulose (CMC) 97 % of control

CN(C)CCNc1cc([N+](=O)[O-])ccc1[N+](=O)[O-]
inactive: [12] 105 % of control

OCc1ccccc1O
inactive: dose: 50.0 mg/kg/injection, schedule: Q01DX009 (ip), vehicle: Klucel (hydroxypropylcellulose) (HPC) 105 % of control | [18] 100 % of control | [21] 102 % of control | [19] 100 % of control | [22] 102 % of control | [20] 106 % of control

COc1ccc(C2(C)OC(=O)c3ccccc32)c2ccccc12 (stereo not given)
inactive: dose: 100.0 mg/kg/injection, schedule: Q01DX001 (ip), vehicle: saline with Tween-80 94 % of control | dose: 200.0 mg/kg/injection, schedule: Q01DX001 (ip), vehicle: saline with Tween-80 100 % of control | dose: 400.0 mg/kg/injection, schedule: Q01DX001 (ip), vehicle: saline with Tween-80 87 % of control

CCCCOP(=O)(OCCCC)N1CCCCC1
inactive: dose: 25.0 mg/kg/injection, schedule: Q04DX002 (ip), vehicle: saline with Tween-80 94 % of control | dose: 50.0 mg/kg/injection, schedule: Q04DX002 (ip), vehicle: saline with Tween-80 108 % of control | [4] 91 % of control

Cc1cnc(/C=N/NC(N)=S)cn1
inactive: [7] 99 % of control | [8] 96 % of control | dose: 400.0 mg/kg/injection, schedule: Q04DX002 (ip), vehicle: saline 108 % of control

O=C(COc1ccc(Cl)cc1)Oc1c(Cl)c(Cl)c(Cl)c(Cl)c1Cl
inactive: [9] 97 % of control | [10] 115 % of control | [11] 104 % of control
